Data set [1] in a line: in vitro. Particulars: human; for Papp B→A at 60 min, 10 µM / efflux ratio at 60 min, 10 µM: Caco-2, pH 7.4; for recovery at 60 min, 10 µM: after 60 min, mean ± SD. The procedure: (§1) Caco-2 cells (ATCC, Manassas, VA, USA; passage 30–44) were cultured in DMEM (Gibco, New York, USA) containing 4.5 g/L d-glucose, 4 mM L-glutamine and supplemented with 10% FBS (Gibco, Grand Island, NY, USA), 1% minimal essential medium non-essential amino acids (Gibco, Paisley, UK), 100 units/mL penicillin and 100 µg/mL streptomycin (Gibco, Grand Island, NY, USA). Cells were seeded at a density of 4.0 × 10^4 cells/cm^2 on polyester transwell insert membranes (12 mm insert, 0.4 µm pore size; Corning incorporated, Kennebunk, ME, USA). Cells were maintained in a humidified incubator with 5% CO2 at 37 °C for 21 or 22 days in 0.5 mL and 1.5 mL medium in the apical and basolateral compartments, respectively. The medium was refreshed every two or three days and always one day before the permeability assay.
(§2) On the day of the experiment, cells were washed twice with HBSS without phenol red (pH 7.4; Sigma-Aldrich, Steinheim, Germany) supplemented with 0.35 g/L sodium bicarbonate and 25 mM HEPES and they were equilibrated in this supplemented HBSS for 15 min in a humidified incubator with 5% CO2 at 37 °C. […] These stocks were diluted to a final concentration of 10 µM in pre-warmed supplemented HBSS (final DMSO level = 0.1%). After 15 min, the transepithelial electrical resistance (TEER) was measured with an Epithelial Voltohmmeter (World Precision Instruments, Sarasota, USA). Compound transport was studied in two directions: from the apical to the basolateral compartment (A-B) and from the basolateral to the apical compartment (B-A). For A-B experiments, 450 µL of the compound (10 µM) was added to the apical side and 1200 µL supplemented HBSS was added to the basolateral side. A sample of 50 µL was removed immediately from the apical compartment at time point zero. After 15 and 30 min, samples were taken from the basolateral compartment. Cells were kept in the incubator during the experiment. After 60 min, medium from both compartments was sampled, cells were washed twice with supplemented HBSS and were maintained in the incubator. After 15 min, the TEER was measured again to check for epithelial barrier damage due to compound exposure. After this, cells were lysed in RIPA buffer (Thermo Scientific, Rockford, IL, USA). For B-A experiments, 400 µL of supplemented HBSS was added to the apical side and 1250 µL of the compound (10 µM) was added to the basolateral side. A sample of 50 µL was removed immediately from the basolateral compartment at time point zero. After 15 and 30 min, samples were taken from the apical compartment. After 60 min, samples were taken similarly as in A-B experiments. The sampled medium and cell lysates were stored at −20 °C till the day of the liquid chromatography–mass spectrometry (LC–MS/MS) analysis. All experiments were run in duplicate. The compounds were quantified with LC–MS/MS as described in Sect. "LC–MS/MS analysis".
(§3) Before chemical analysis, cell lysates were two times diluted in ice-cold methanol and centrifuged at 15,000 rpm at 4 °C. The supernatant was then injected into the LC–MS/MS system. Sampled buffer from donor compartments was diluted 40 times in buffer and samples from the receiver compartment were analysed undiluted. Standards were prepared in the same assay buffer to quantify the amount of compound in medium samples. For quantification of compounds in cell lysates, standards were prepared in a mixture of 50% RIPA buffer and 50% methanol.
(§4) All data are presented as mean ± SD.
(§5) For the < Tsi > a value of 3.32 h was used (Grandoni et al. [2019]).
(In general: Caco-2 cells form a polarised layer with tight junctions and transporters.)

The subject of data set [2] is Caco-2 cells. Description: in vitro. The settings on record: for fa (fraction absorbed) / ka (absorption rate constant): scaled from corrected Caco-2 Papp A-B, human. The procedure: as §1, §2, §3, §4, §5
Data set [3] has as its system ADRβ2. Briefly: PBK modelling-based reverse dosimetry of in vitro EC50 to ED50, ADRβ2. Particulars: predicted human oral ED50 from in vitro EC50 (Pinckaers et al. [2024]) and modelled Cmax plasma venous. The source says:
(§6) The in vitro effect concentrations (EC50), for activation of the α1A, α1B, α1D, α2A, α2B, β1 and β2 ADR activation and the activation of TAAR1, were obtained from our previous study (Pinckaers et al. [2024]).

In data set [4] the test system is ADRα2A. Briefly: PBK modelling-based reverse dosimetry of in vitro EC50 to ED50, ADRα2A. The settings on record: predicted human oral ED50 from in vitro EC50 (Pinckaers et al. [2024]) and modelled Cmax plasma venous.
Source text: as §6

For data set [5], the system named is TAAR1. Briefly: PBK modelling-based reverse dosimetry of in vitro EC50 to ED50, TAAR1. Set-up: species or system human. Particulars: for TAAR1 ED50: predicted human oral ED50 from in vitro EC50 (Pinckaers et al. [2024]) and modelled Cmax plasma venous.
Source text: as §6

Data set [6] relates to ADRβ1. Briefly: PBK modelling-based reverse dosimetry of in vitro EC50 to ED50, ADRβ1. Particulars: predicted human oral ED50 from in vitro EC50 (Pinckaers et al. [2024]) and modelled Cmax plasma venous. Set-up: species or system human.
Data set [7] deals with ADRα1A. Description: PBK modelling-based reverse dosimetry of in vitro EC50 to ED50, ADRα1A. The settings on record: predicted human oral ED50 from in vitro EC50 (Pinckaers et al. [2024]) and modelled Cmax plasma venous.
Source text: as §6

[8] abbreviates: Caco-2, pH 7.4, Papp A-B corrected, corrected for the difference between Papp A-B of metoprolol in this study and in literature.
The mark [9] stands for this setting: Caco-2, pH 7.4, Papp A-B, Caco-2, apical to basolateral, 10 µM, HBSS pH 7.4, mean ± SD, duplicate.
Setting [10] is: Caco-2, pH 7.4, Recovery (A-B), Caco-2, A-B experiments.
[11] abbreviates: Caco-2, pH 7.4, Recovery (B-A), Caco-2, B-A experiments.

One may read the Papp B→A as the apparent permeability from the basolateral to the apical side of a cell layer. As a reminder, the efflux ratio is the permeability from basolateral to apical divided by that in the opposite direction, in the common usage. As a reminder, the Papp A→B is the apparent permeability from the apical to the basolateral side of a cell layer. A low value points to slow passage.

Several values for one entry are separate records, joined by “and”; a condition that tells them apart may be missing. Equal values may be shown once.

As for `CNC(C)C(O)c1ccc(O)cc1` (centres unmarked) [Methylsynephrine], in data set [1], the Papp B→A at 60 min, 10 µM stood at 0.39 ± 0.202 ×10⁻⁶ cm/s and the efflux ratio at 60 min, 10 µM was 1.1. In addition, the Papp A→B at 60 min, 10 µM in data set [1] (setting [8]) is 1.3 ×10⁻⁶ cm/s. In data set [1] (setting [9]), this compound returned a Papp A→B at 60 min, 10 µM of 0.353 ± 0.215 ×10⁻⁶ cm/s. This compound also yielded a recovery at 60 min, 10 µM in data set [1] (setting [10]) of 114 ± 8.39%. The compound also yielded a recovery at 60 min, 10 µM in data set [1] (setting [11]) of 102 ± 11.7%. In data set [2], the “fa (fraction absorbed)” value turned out to be 0.971 and the “ka (absorption rate constant)” value was 0.563 h⁻¹. Besides, the “ADRβ2 ED50” value in data set [3] is reported as “– (compounds with a dash (-) did not activate the receptors in vitro at concentrations ≤ 300 µM)”. In data set [4], the “ADRα2A ED50” value is listed as “– (compounds with a dash (-) did not activate the receptors in vitro at concentrations ≤ 300 µM)”. Also, the “TAAR1 ED50” value in data set [5] was “– (compounds with a dash (-) did not activate the receptors in vitro at concentrations ≤ 300 µM)”. Besides, in data set [6], the “ADRβ1 ED50” value is given as 16.9 mg/kg bw. Moreover, in data set [7], the “ADRα1A ED50” value is reported as 29.7 mg/kg bw.

Take `NCCc1ccccc1` [Phenethylamine, phenethylamine]: in data set [1], the Papp B→A at 60 min, 10 µM came to 1.95 ± 1.04 ×10⁻⁶ cm/s and the efflux ratio at 60 min, 10 µM came out at 0.677. Also, the apical-to-basolateral permeability (Papp A→B) at 60 min, 10 µM in data set [1] (setting [8]) turned out to be 10.5 ×10⁻⁶ cm/s. The compound further came in with a Papp A→B at 60 min, 10 µM in data set [1] (setting [9]) of 2.88 ± 0.22 ×10⁻⁶ cm/s. For the same compound, in data set [1] (setting [10]), the recovery at 60 min, 10 µM came out at 15.7 ± 1.51%. For the same compound, the recovery at 60 min, 10 µM in data set [1] (setting [11]) amounted to 103 ± 3.36%. In data set [2] (Caco-2 transport studies, 10 µM), the “metabolic breakdown by Caco-2 cells” value is “metabolized by Caco-2 cells”. In data set [2], the “fa (fraction absorbed)” value was 1.00 and the “ka (absorption rate constant)” value is 1.64 h⁻¹. Further, the “ADRβ2 ED50” value in data set [3] was “– (compounds with a dash (-) did not activate the receptors in vitro at concentrations ≤ 300 µM)”. Besides, the “ADRα2A ED50” value in data set [4] was “– (compounds with a dash (-) did not activate the receptors in vitro at concentrations ≤ 300 µM)”. For the same compound, in data set [5], the “TAAR1 ED50” value was 67.7 mg/kg bw. For the same compound, the “ADRβ1 ED50” value in data set [6] is “– (compounds with a dash (-) did not activate the receptors in vitro at concentrations ≤ 300 µM)”. In addition, in data set [7], the “ADRα1A ED50” value is reported as “– (compounds with a dash (-) did not activate the receptors in vitro at concentrations ≤ 300 µM)”.

Take `CC(CN)c1ccccc1` (stereo not drawn) [β-Methylphenethylamine, β-methylphenethylamine]: in data set [1], the Papp B→A at 60 min, 10 µM was found to be 12.1 ± 2.02 ×10⁻⁶ cm/s and the efflux ratio at 60 min, 10 µM came to 0.766. For the same compound, the Papp A→B at 60 min, 10 µM in data set [1] (setting [8]) came to 57.6 ×10⁻⁶ cm/s. In data set [1] (setting [9]), this compound returned a Papp A→B at 60 min, 10 µM of 15.8 ± 1.47 ×10⁻⁶ cm/s. The same compound had a recovery at 60 min, 10 µM in data set [1] (setting [10]) of 80.9 ± 3.27%. This compound displayed a recovery at 60 min, 10 µM in data set [1] (setting [11]) of 89.3 ± 4.46%. For the same compound, in data set [2], the “fa (fraction absorbed)” value stood at 1.00 and the “ka (absorption rate constant)” value amounted to 3.79 h⁻¹. Further, the “ADRβ2 ED50” value in data set [3] was “– (compounds with a dash (-) did not activate the receptors in vitro at concentrations ≤ 300 µM)”. Moreover, the “ADRα2A ED50” value in data set [4] is recorded as “– (compounds with a dash (-) did not activate the receptors in vitro at concentrations ≤ 300 µM)”. Also, the “dose needed to reach internal effect concentrations, times lower than the dose of higenamine” value in data set [5] (TAAR1, Fig. 6F) was 6.4 times. For the same compound, in data set [5], the “TAAR1 ED50” value was 0.995 mg/kg bw and 0.955 mg/kg bw. The “ADRβ1 ED50” value in data set [6] is “– (compounds with a dash (-) did not activate the receptors in vitro at concentrations ≤ 300 µM)”. For the same compound, the “ADRα1A ED50” value in data set [7] was “– (compounds with a dash (-) did not activate the receptors in vitro at concentrations ≤ 300 µM)”.

Values taken from article PMC12085399, “Quantitative in vitro-to-in vivo extrapolation of human adrenergic and trace amine-associated receptor 1 potencies of pre-workout supplement ingredients using physiologically based kinetic modelling-based reverse dosimetry” (Archives of Toxicology, 2025).
